# Reference: patent US6147107A, “Specific inhibition of the P42/44 mitogen activated protein (map) kinase cascade sensitizes tumor cells” (priority 1998, dated 2000)
# Key:
# HL-60 cells [1] = experiment: Taxol-mediated apoptosis of HL-60 cells; settings: Homo sapiens, HL-60, 6 h, read-out: cell death, taxol alone
# A431 cells [2] = experiment: TUNEL assay, apoptosis of A431 cells after radiation; assay type: cell-based, human; settings: 2 μM inhibitor + 2 Gy, 24 hours
# Experimental: The ability of the cells to survive was assessed using TUNEL assays 24 hours after irradiation and the results are depicted in FIG. 4.
# HepG2 hepatoma cells = experiment: TUNEL assay, HepG2 hepatoma cells after radiation; assay type: cell-based; settings: SL327 (2 μM) + 2×2 Gy, 12 hours
# Experimental: (§1) Experimental cells were exposed to radiation (2×2 Gy), or treated with the p42/44 MAP kinase inhibitory drug SL327 (2 μM), or treated with SL327 and exposed to radiation. Twelve hours after the final irradiation, cells were assessed by the TUNEL assay.
# (§2) This is highly relevant because the neoplastic cells which are targeted for destruction by radiation therapy are rapidly proliferating, in contrast to most normal slowly growing somatic cells. Primary hepatocytes (representing slow growing "normal" cells) and HepG2 hepatoma cells derived from a cancerous cell line were cultured under identical conditions. Control cells of both types were left untreated. Matched samples of both cell types were treated with the p42/44 MAP kinase cascade inhibitory drug SL327, or exposed to radiation (2×2 Gy), or treated with SL327 and exposed to radiation. Twelve hours after the final irradiation, cells were processed and the number of dead (apoptoic) cells was determined by the TUNEL assay. […] Furthermore, the effect is specific for rapidly growing cells.
# primary hepatocytes = experiment: TUNEL assay, primary hepatocytes after radiation; assay type: cell-based; settings: SL327 (2 μM) + 2×2 Gy, 12 hours
# Experimental: as §1, §2
# MEK1 and MEK2 [3] = experiment: Inhibition of Raf-mediated phosphorylation/activation of MEK1/2; assay type: biochemical; settings: for inhibition of MEK1 and MEK2: general statement; for inhibition of Raf phosphorylation of MEK1 and MEK2: stated as demonstrated by the applicant
# cancer cells = experiment: Radiosensitization of cancer cells; assay type: cell-based; settings: general statement
# MEK1 and MEK2 [4] = settings: general statement on known inhibitors; cited from earlier work
# [5] = tested on: MDA-MB-231 mammary cancer cells
# Experimental: To further extend these investigations, the efficacy of U0126 was tested in the mammary cancer cell line MDA-MB-23 1. As described in the previous experiment, cells were exposed to 2 μM U0126 alone, radiation (3×2 Gy) alone, or to the combination of U0126 plus radiation. Control cells were treated with vehicle alone.
# A431 cells [6] = tested on: A431 cells
# p42/44 MAP kinase = experiment: MAP kinase activity in HL-60 cells (immunoprecipitation, MBP substrate); assay type: cell-based, human; settings: ara-C
# Experimental: FIG. 8. […] HL-60 cells were exposed to ara-C (10 μM) in the absence or presence of aminomethoxyflavone (PD98059; 2.5 μM) for 3 hours. MAP kinase activity (p42-ERK1/p44-ERK2) was determined by in vitro assay. In each case, values reflect the mean ±SE of duplicate determinations, and are expressed as a percentage of basal activity present in untreated controls.
# Determination of MAPK Activity: Pelleted cells were rinsed in PBS, repelleted, and flash-frozen. Cell pellets were lysed in 25 mM Hepes, pH 7.4 containing 5 mM EGTA, 5 mM EDTA, supplemented with protease inhibitors (5 mM benzamidine, 1 mM phenylmethylsulfonylfluoride, 1 mg/ml soybean trypsin inhibitor, 40 μg/ml aprotinin, 1 μM microcystin LR) phosphatase inhibitors (0.5 mM trisodium orthovanadate, 0.5 mM tetrasodium pyrophosphate), and containing 0.056% sodium deoxycholate w/v, 1% Triton X-100 v/v, and 0.1% 2-mercaptoethanol v/v. Lysates were clarified by centrifugation at 5,000× g at 4° C. for 5 min. MAPK activity was assayed using MBP as a substrate following immunoprecipitation of p42/44 MAP kinase with protein A/agarose-conjugated antibody/antisera. Preimmune controls were also run to ensure selectivity of substrate phosphorylation. Reaction mixtures consisted of immunoprecipitated enzyme, substrate, and [γ-^32 P] ATP ([…]) in 25 mM Hepes, pH 7.4 containing 15 mM MgCl2, […], 0.01% (v/v) 2-mercaptoethanol, 1 μM […]. Reactions were initiated by the addition of substrate. MAPK reactions were terminated by transfer to p81 filter paper; filters were rinsed repeatedly in 185 mM orhtophosphoric acid, and then dehydrated in acetone. Total radioactivity in filters was determined by liquid scintillometry.
# HL-60 cells were exposed to ara-C in the absence or presence of PD98059. Following this treatment, the cells were eveluated for MAP kinase activity, DNA strand breakage, clonogenicity potential and extent of apoptosis.
# HL-60 cells [7] = experiment: Clonogenicity of HL-60 cells; assay type: cell-based, human; settings: either agent alone
# Experimental: FIGS. 9a and 9b. […] HL-60 cells were exposed to ara-C (10 μM) in the absence or presence of aminomethoxyflavone (PD98059; 2.5 μM) for 6 hours. Apoptotic DNA damage and cell death were assessed as described in Methods. […] FIG. 9b.
# Determination of Clonogenicity: Pelleted cells were rinsed extensively and prepared for soft-agar cloning. Cells were resuspended in cold PBS and seeded in 35-mm culture plates at a fixed density (400 cell/ml/well) in complete RPMI-1640 medium containing 20% fetal calf serum, 10% 5637-CM, and 0.3% Bacto agar. Cultures were mainatined for 10 to 12 days before formation of colonies (defined as groups of ≥50 cells) was scored.
smiles,measurement,setting,value
CC(=O)O[C@H]1C(=O)[C@@]2(C)[C@H]([C@H](OC(=O)c3ccccc3)[C@]3(O)C[C@H](OC(=O)[C@H](O)[C@@H](NC(=O)c4ccccc4)c4ccccc4)C(C)=C1C3(C)C)[C@]1(OC(C)=O)CO[C@@H]1C[C@@H]2O [taxol],cytotoxicity at 0.5 µM,HL-60 cells [1],~27%
N#C/C(=C(/N)Sc1ccc(N)cc1)c1ccccc1C(F)(F)F [SL327],percentage of apoptotic cells (TUNEL),A431 cells [2],dramatic increase in the percentage of apoptotic cells
same,increase in cell killing compared to radiation alone,HepG2 hepatoma cells,approximately 2.5 fold
same,response to combined drug/radiation treatment (TUNEL),HepG2 hepatoma cells,effectively killed
same,response to combined drug/radiation therapy (TUNEL),primary hepatocytes,fairly resistant
same,inhibition of MEK1 and MEK2,MEK1 and MEK2 [3],all inhibit MEK1 and MEK2
same,inhibition of Raf phosphorylation of MEK1 and MEK2,MEK1 and MEK2 [3],inhibiting the ability of Raf protein kinases to phosphorylate MEK1 and MEK2
same,radiosensitization of cancer cells,cancer cells,all cause radiosensitization of cancer cells
same,mode of action at MEK1/2,MEK1 and MEK2 [4],bind to MEK1/2 and sterically prevent Raf from binding
"N#CC(=C(N)Sc1ccccc1N)C(C#N)=C(N)Sc1ccccc1N [U0126, 1,4-diamino-2,3-dicyano-1,4-bis[2-aminophenylthio]butadiene]",percentage of apoptotic cells (TUNEL),A431 cells [2],dramatic increase in the percentage of apoptotic cells
same,decreasing cellular proliferative potential versus either treatment alone (MTT),[5]; 2 μM U0126 + 3×2 Gy,far more effective
same,proliferative rate (MTT),"[5]; 2 μM U0126 alone or with 3×2 Gy, 3-4 days",Decreased proliferative rate
same,inhibition of MEK1 and MEK2,MEK1 and MEK2 [3],all inhibit MEK1 and MEK2
same,inhibition of Raf phosphorylation of MEK1 and MEK2,MEK1 and MEK2 [3],inhibiting the ability of Raf protein kinases to phosphorylate MEK1 and MEK2
same,radiosensitization of cancer cells,cancer cells,all cause radiosensitization of cancer cells
same,abolishing cellular proliferation versus U0126 alone or irradiation alone (MTT),A431 cells [6]; 2 μM U0126 + 3×2 Gy,markedly more effective
same,proliferative rate (MTT),"A431 cells [6]; 2 μM U0126 alone or with 3×2 Gy, 4-8 days",Decreased proliferative rate
same,mode of action at MEK1/2,MEK1 and MEK2 [4],bind to MEK1/2 and sterically prevent Raf from binding
"Cl.Nc1ccn([C@@H]2O[C@H](CO)[C@@H](O)[C@@H]2O)c(=O)n1 [ara-C, 1-[β-D-arabinofuranosyl] cytosine hydrochloride]","MAP kinase activity, effect of ara-C",p42/44 MAP kinase,stimulation of MAP kinase
same,"clonogenic potential, single agent",HL-60 cells [7],neither alone had this effect
O=C(NOCC1CC1)c1ccc(F)c(F)c1Nc1ccc(I)cc1Cl [PD184352],mode of action at MEK1/2,MEK1 and MEK2 [4],bind to MEK1/2 and sterically prevent Raf from binding
